Source: PMC6724035, “Evaluation of Tumor-Targeting Properties of an Antagonistic Bombesin Analogue RM26 Conjugated with a Non-Residualizing Radioiodine Label Comparison with a Radiometal-Labelled Counterpart” (Pharmaceutics, 2019)
Where a SMILES comes first, the peptide text is derived from it. [ ]: non-standard residue; d: D form. Tyr(3-I) = N[C@@H](Cc1ccc(O)c(I)c1)C(=O)O; Sta = CC(C)C[C@H](N)[C@@H](O)CC(=O)O; AEEA = NCCOCCOCC(=O)O

Assays:
[1] = test system: GRPR-expressing PC-3 tumour xenograft; details: 0.5 h after injection; co-injection of non-labelled NOTA-PEG4-RM26
Protocol: Animal studies were planned and performed in agreement with EU Directive 2010/63/EU for animal experiments and Swedish national legislation concerning protection of laboratory animals. Experiments were approved by the Ethics Committee for Animal Research in Uppsala (C4/16, 26 February 2016). Biodistribution studies were performed in female BALB/C nu/nu mice purchased from Scanbur A/S (Karlslunde, Denmark). GRPR-expressing xenografts were established by subcutaneous injection of 5 × 10^6 PC-3 cells/mouse in the right hind leg of mice 3 weeks before the experiment. The animals were randomized into groups of four mice for each data point.
Mice were euthanized followed by dislocation of their neck at 0.5 h after injection and blood samples were collected by heart puncture. At 3 and 24 h after injection, mice were euthanized by an intraperitoneal injection of anaesthetic solution (20 µL of solution per gram of body weight: Ketalar, 10 mg/mL; Rompun, 1 mg/mL) followed by heart puncture. […] The organ radioactivity was measured in a gamma-counter and uptake values of organs were calculated as percentage of injected dose per gram tissue (% ID/g). To test the in vivo binding specificity, a group of mice was co-injected with 7.5 nmol of non-labelled peptide (NOTA-PEG4-RM26), and biodistribution was measured at 0.5 h after injection.

PC-3 cells = assay: In vitro binding specificity assay; format: cell-based, human; details: 1 nM, 1 h at 37 °C; 200-fold excess NOTA-PEG4-RM26 for blocking
Protocol: (§1) The in vitro binding specificity test of [^125I]I-Tyr-PEG2-RM26 was performed on PC-3 and DU-145 cell lines. […] The cells were incubated with 1 nM concentration of [^125I]I-Tyr-PEG2-RM26 solution for 1 h at 37 °C. To saturate GRPR, one set of dishes was treated with 200-fold molar excess of non-labelled peptide, NOTA-PEG4-RM26, 15 min before adding the radiolabelled compound. After washing with serum-free media, cells were detached by treatment with 1 mL trypsin-EDTA solution twice. Cell-associated radioactivity was measured in the gamma-counter and presented as percentage of cell-associated activity.

DU-145 cells = assay: In vitro binding specificity assay; format: cell-based, human; details: 1 nM, 1 h at 37 °C; 200-fold excess NOTA-PEG4-RM26 for blocking
Protocol: as §1

[2] = 0.5 h; 300 µg phosphoramidon co-injected; non-tumour bearing NMRI mice
Protocol: Two groups of 4 mice were used for this experiment. Biodistribution of [^125I]I-Tyr-PEG2-RM26 was evaluated in female NMRI mice (weight: 29.6 ± 1.7 g). Non-tumour bearing mice as a control group were injected with 40 pmol of [^125I]I-Tyr-PEG2-RM26 (30 kBq, 100 μL in PBS) into the tail vein. Another group of mice was injected with same activity by co-injection of PA (15 µL of 20 mg/mL stock solution, 300 µg). After 0.5 h, mice were euthanized by dislocation of their neck, and blood samples were collected. Salivary glands, thyroid, lung, liver, spleen, pancreas, stomach, small intestine, kidneys, […], muscle, and bone were collected and weighed. The organ radioactivity was measured in a gamma-counter and uptake values of organs were calculated as percentage injected dose per gram tissue (% ID/g).

## CC(C)C[C@H](NC(=O)C[C@H](O)[C@H](CC(C)C)NC(=O)[C@H](Cc1c[nH]cn1)NC(=O)CNC(=O)[C@@H](NC(=O)[C@H](C)NC(=O)[C@H](Cc1c[nH]c2ccccc12)NC(=O)[C@H](CCC(N)=O)NC(=O)[C@@H](Cc1ccccc1)NC(=O)COCCOCCNC(=O)[C@@H](N)Cc1ccc(O)c(I)c1)C(C)C)C(N)=O [[^125I]I-Tyr-PEG2-RM26] (H-[Tyr(3-I)][AEEA][dF]QWAVGH[Sta]L-NH2)
[1]
  Uptake in pancreas, blocked vs non-blocked group: significantly (p < 0.05) reduced
PC-3 cells
  Binding specificity to PC-3 cells: receptor mediated
DU-145 cells
  Binding specificity to DU-145 cells: receptor mediated
[2]
  Influence of PA co-injection on blood clearance rate or uptake in normal non-targeted organs and tissues: did not show any significant influence
  Uptake in GRPR-positive organs (pancreas, small intestines, stomach) after co-injection of PA: No significant increase
